These results are taken from article PMC6384891, “An automated microliter-scale high-throughput screening system (MSHTS) for real-time monitoring of protein aggregation using quantum-dot nanoprobes” (Scientific Reports, 2019).

Assay [1] has as its target T1, Aβ42 (Homo sapiens, UniProt P05067).
T1 construct: Human Aβ42 (4349-v, Peptide Institute); purchased Peptide Institute 4349-v
The experiment in a line: automated MSHTS system, Aβ aggregation inhibition imaged with QDAβ nanoprobe. It counts as biochemical. As for the experimental part:
An outline of the automated MSHTS system developed in this study is as follows (Fig. 1e). First, sample solutions, such as natural extracts and/or chemical compounds, were diluted stepwise in a 384-well plate. The diluted samples in this plate were injected into a 1536-well plate at 2.5 µl per well (Supplementary Fig. S6a). […] The 1536-well plate was sealed, and each well was imaged by a fluorescence microscope system. After incubation to induce aggregation for 24 h at 37 °C, each well was imaged by a fluorescence microscope system. The images were analyzed to determine the SD values of fluorescence intensity of each pixel. The half-maximal effective concentration (EC50) was estimated from the SD values according to our previous method.
The automated MSHTS system used was based on the method described in the Supplementary Methods. In this study, EC50 values of the plant crude extract library and the compound library were measured by the automated MSHTS system and the manual MSHTS system[19],[20], respectively. All fluorescence micrograph images were taken using a 4x objective in the MSHTS systems.
Automated MSHTS system–sample preparation and mixing with Aβ
Sample preparation was carried out using Automated Workstation JANUS G3 (Perkin Elmer).
To make a dilution series of samples, dilution buffer (10%EtOH, 1×PBS) was aspirated ( asp. speed:
20 µl/s) using a conductive chip that can detect liquid level and injected (dsp. height: 0.75 mm, dsp. speed: 10 µl/s) into each well of a 384-well plate (384 Hard-shell micro plate HSP3951, BIO-RAD) without wells for injecting stoc k sample solution. Stock sample solutions were prepared, and were injected manually into the vacant wells of the 384-well plate. As a control without any inhibitor, dilution buffer alone was injected into the well instead of stock sample solution. The stock sample solution or control solution was aspirated (asp. height: 2 mm, asp. speed: 10 µl/s), injected (dsp. height: 4 mm, dsp. speed: 10 µl/s) into the next well containing the dilution buffer, and mixed by pipetting (asp. height: 2 mm, dsp. height: 4 m m , mix speed: 25 µl/s, mix cycles: 5). This dilution st ep was repeated five times, so that si x dilution series were prepared for each sample. The diluted samples in the 384-well plate were aspirated using a 384-chip head (asp. height: 1 mm, asp. speed:
3 µl/s) and injected (quadruplicate) (dsp. height: 1 mm, dsp. speed: 10 µl/s) into a 1536-well plate (1536 well FIA black plate, Greiner Bio-One) at 2.5 µl per well. […]
After centrifugation in a multi-well plate centrifuge, the 1536-well plate was observed by an inverted fluorescence microscope system (ECLIPSE Ti-E, Nikon) equipped with a color CCD camer a (DS-Ri2, Nikon). […]

Assay [2] addresses T1, Aβ42. Put plainly: manual MSHTS system, Aβ aggregation inhibition. It counts as biochemical. The settings on record: 30 µM Aβ; for EC50: 30 nM QDAβ, 24 h at 37 °C, read-out: EC50 (μM) Aβ. How it is done: The automated MSHTS system used was based on the method described in the Supplementary Methods. In this study, EC50 values of the plant crude extract library and the compound library were measured by the automated MSHTS system and the manual MSHTS system[19],[20], respectively. All fluorescence micrograph images were taken using a 4x objective in the MSHTS systems. […]
concentrations of RA were incubated with 30 µM A β and 30 nM QD 655-labeled Aβ or QD605-labeled Aβ in a 1536-well plate according to our previous reports1,5. Fluorescence micrographs […]
presence of 600 and 120 µM RA.
(1 picture or pasted object on this page, not shown here) […]
QDAβ were incubated with various concentrations of chaperones i n a 1536-well plate for 24 h at 37 ° C and observed by fluorescence microscopy. C, E, and P indicate CRT , ERp57, and PDI, respectively. EC50 and the SD values were determined from the micrographs of three independent

A further assay has as its target T2, tau MBD fragment (Mus musculus, UniProt P10637).
T2 construct: added N-terminal methionine (from NdeI site) (N); made in house; host or cells: E. coli Rosetta (DE3) pLys, pET-21a(+)
The experiment in a line: MSHTS system, tau aggregation inhibition with QDTau nanoprobe. Conditions: 10 µM tau, 50 nM QDTau, 10 µM heparin, 10 mM DTT, 24 h at 37 °C. Format: biochemical. The source says: In this study, we used the microtubule-binding domain (MBD) fragment of 4-repeat tau (Fig. 4a) to image tau aggregation. First, we examined the aggregated condition of tau in the presence of heparin, which formed paired helical-like filaments under physiological conditions in vitro, according to early reports[24],[25]. […] Since 4-repeat tau contains two Cys residues (C222 and C253), it may be necessary for aggregation to occur, to inhibit intramolecular disulfide crosslinking, as was reported in a previous report. […] When 10 μM tau was incubated in the presence of 10 mM DTT, the SD value reached a maximum (Supplementary Fig. S10c,d), so we decided to observe aggregation using 10 μM tau. […] We compared tau and Aβ aggregates by TEM observation. The morphology of tau and Aβ fibrils was difficult to distinguish (Fig. 4b). […] We also confirmed by TEM observation that the aggregation of tau and Aβ contained QD nanoprobes (Fig. 4d). These aggregations were directly observed by confocal microscopy in real time (Fig. 4e). […] The imaging method using a QD nanoprobe without a drying step as in TEM observation may be suitable for detailed observation of aggregate shapes in solution.
Supplementary Fig. S11 Inhibition of tau aggregation by RA (a) and spearmint extract (b). 10 µM tau, 50 nM QDTau, 10 µM heparin, 10 mM DTT were incubated with various concentrations of RA […]
for 24 h at 37 ° C and observed by fluorescence microscopy. EC50 and the SD values were determined from the micrographs of three independent wells.
(1 picture or pasted object on this page, not shown here)
Supplementary Fig. S12 Inhibition of tau and Aβ aggregation by chaperones. 10 µM tau, 50 nM QDTau, 10 µM heparin, 10 mM DTT were incubated with various concentrations of chaperon es in a 1536-well plate for 24 h at 37 °C and observed by fluorescence microscopy. 30 µM Aβ , 30 nM QDAβ were incubated with various concentrations of chaperones i n a 1536-well plate for 24 h at 37 ° C and observed by fluorescence microscopy. C, E, and P indicate CRT , ERp57, and PDI, respectively. EC50 and the SD values were determined from the micrographs of three independent

The test system of another assay is Aβ. Also noted: method as in PMID 15511626. The settings on record: cited from earlier work.

T1 sequence (P05067 672-713 limits assumed): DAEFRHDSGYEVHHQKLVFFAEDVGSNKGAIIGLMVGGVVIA
T2 sequence (P10637 with tags, fused parts or gaps isoform P10637-5 limits assumed): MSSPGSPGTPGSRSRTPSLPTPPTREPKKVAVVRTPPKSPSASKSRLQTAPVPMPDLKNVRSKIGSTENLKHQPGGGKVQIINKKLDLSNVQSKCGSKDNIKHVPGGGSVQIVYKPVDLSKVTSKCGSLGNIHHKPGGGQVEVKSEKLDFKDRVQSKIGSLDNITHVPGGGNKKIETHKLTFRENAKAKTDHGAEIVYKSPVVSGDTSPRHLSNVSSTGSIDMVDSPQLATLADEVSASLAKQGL

A word on the EC50: it is the concentration needed to bring the measured effect to its halfway point. For the molecule `O=C(/C=C/c1ccc(O)c(O)c1)O[C@H](Cc1ccc(O)c(O)c1)C(=O)O` [RA, rosmarinic acid], the EC50 on Aβ42 [1] (25 µM Aβ, 25 nM QDAβ, 1536-well plate, 24 h at 37 °C, average of 61 sets, read-out: EC50 of Aβ aggregation inhibition, positive control) stood at 26900 ± 4570 nM. Besides, the “Aβ aggregation inhibition at 120 µM, mixed by pipetting 10 times” value at Aβ42 [1] (120 µM, pipetting 10 times) is listed as “did not inhibit”. In addition, the “Aβ aggregation inhibition at 120 µM, mixed by pipetting three or five times” value at Aβ42 [1] (120 µM, pipetting three or five times) is listed as “inhibited”. In addition, the “Aβ aggregation at 300 and 60 µM” value at Aβ42 [1] (300 and 60 µM, 25 µM Aβ, 24 h at 37 °C) was “inhibited”. The “Aβ aggregation at 600 and 120 µM” value on Aβ42 [2] (600 and 120 µM, 30 nM QD655- or QD605-labeled Aβ) was “inhibited”. Moreover, the “EC50 of tau aggregation inhibition (in words)” value at tau MBD fragment is “could not be determined”.

Protein disulfide isomerase [PDI]: the EC50 with Aβ42 [2] turned out to be 1 ± 0.206 µM; with tau MBD fragment it was 12.7 ± 4.6 µM.

For Tannic acid, in the assay on Aβ, the “inhibition of Aβ aggregation (in words)” value is listed as “dose-dependently inhibited”.

B1: ERp57: chaperone (protein, UniProt P30101 25-505, looked up)
Protein disulfide-isomerase A3: SDVLELTDDNFESRISDTGSAGLMLVEFFAPWCGHCKRLAPEYEAAATRLKGIVPLAKVDCTANTNTCNKYGVSGYPTLKIFRDGEEAGAYDGPRTADGIVSHLKKQAGPASVPLRTEEEFKKFISDKDASIVGFFDDSFSEAHSEFLKAASNLRDNYRFAHTNVESLVNEYDDNGEGIILFRPSHLTNKFEDKTVAYTEQKMTSGKIKKFIQENIFGICPHMTEDNKDLIQGKDLLIAYYDVDYEKNAKGSNYWRNRVMMVAKKFLDAGHKLNFAVASRKTFSHELSDFGLESTAGEIPVVAIRTAKGEKFVMQEEFSRDGKALERFLQDYFDGNLKRYLKSEPIPESNDGPVKVVVAENFDEIVNNENKDVLIEFYAPWCGHCKNLEPKYKELGEKLSKDPNIVIAKMDATANDVPSPYEVRGFPTIYFSPANKKLNPKKYEGGRELSDFISYLQREATNPPVIQEEKPKKKKKAQEDL
As for B1, the EC50 with Aβ42 [2] was 0.321 ± 0.073 µM; in the assay with tau MBD fragment it was 4.79 ± 1.19 µM.

B2: calreticulin (protein, UniProt P27797 18-417, looked up)
Calreticulin: EPAVYFKEQFLDGDGWTSRWIESKHKSDFGKFVLSSGKFYGDEEKDKGLQTSQDARFYALSASFEPFSNKGQTLVVQFTVKHEQNIDCGGGYVKLFPNSLDQTDMHGDSEYNIMFGPDICGPGTKKVHVIFNYKGKNVLINKDIRCKDDEFTHLYTLIVRPDNTYEVKIDNSQVESGSLEDDWDFLPPKKIKDPDASKPEDWDERAKIDDPTDSKPEDWDKPEHIPDPDAKKPEDWDEEMDGEWEPPVIQNPEYKGEWKPRQIDNPDYKGTWIHPEIDNPEYSPDPSIYAYDNFGVLGLDLWQVKSGTIFDNFLITNDEAYAEEFGNETWGVTKAAEKQMKDKQDEEQRLKEEEEDKKRKEEEEAEDKEDDEDKDEDEEDEEDKEEDEEEDVPGQAKDEL
notes: chaperone
Take B2: the EC50 in the assay with Aβ42 [2] amounted to 0.191 ± 0.04 µM; with tau MBD fragment it was 0.843 ± 0.047 µM.
